Data published in PMC6476888, “Design and synthesis of anticancer 1-hydroxynaphthalene-2-carboxanilides with a p53 independent mechanism of action” (Scientific Reports, 2019).
Read-outs that look alike come from different tables or passages of the source.

Experiments:
[1] = tested on: NHDF; assay: Cytotoxicity (MTS, 72 h) against normal human fibroblasts; assay type: cell-based; details: for IC50: Homo sapiens, NHDF, MTS, 72 h incubation
[2] = tested on: p53/p21 system in the HCT116 cells; assay: Western blot of p53/p21 activation; assay type: cell-based, human
Protocol: Further exploration of the cell death model was performed by a western blot analysis of protein activation in response to incubation with the tested compound (Figs 6, 7). […] The proapoptotic activation of the p53/p21 system was noticeable after the first 12 hours and then became stronger after 24 h. This effect was not observed in the case of the p53 null cells, which were unable to synthesize this protein.
The HCT116 cells were seeded in 3-cm Petri dishes (Nunc) at a density of 0.5·10^6 cells/well and incubated overnight. […] The cells were harvested by trypsinization and washed with cold PBS. Next, the cells were centrifuged and suspended in an RIPA buffer (Thermo-Fisher Scientific) containing Halt Protease Inhibitor Cocktail (Thermo-Fisher Scientific), Halt Phosphatase Inhibitor Cocktail (Thermo-Fisher Scientific) along with 0.5 M EDTA and lysed for 20 min on ice. Then, the lysates were sonicated, centrifuged at 10,000 rpm for 10 min at 4 °C and the supernatants were collected for further analysis. The protein concentration was determined using a Micro BCA™ Protein Assay Kit (Thermo-Fisher Scientific, Waltham, MA, USA c) according to the manufacturer’s instructions. Equal amounts of the proteins (20 μg) were electrophoresed on SDS-Page gels and transferred onto nitrocellulose membranes. The membranes were blocked in 5% non-fat milk prepared in PBS containing 0.1% Tween-20 (TPBS) for 1 h. After blocking, the membranes were incubated with specific primary antibodies: p21^Waf1/Cip1, p53, cytochrome c, caspase-8, caspase-9, AIF, PARP, GAPDH and β-Actin overnight at 4 °C, and then washed and incubated with horseradish peroxidase (HRP)-conjugated secondary antibodies for 1 h at room temperature. All of the antibodies were purchased from CellSignaling (Danvers, MA, USA) and were diluted 1:1000 in 5% milk in TPBS. Finally, the membranes were washed and incubated with a SuperSignal™ West Pico Chemiluminescent Substrate (Thermo-Fisher Scientific). The chemiluminescence signals were captured using a ChemiDoc™ XRS+ System (Bio-Rad Laboratories, Hercules, CA, USA). The experiments were performed at least three times. Densitometric analysis was performed using ImageJ 1.41 software (Wayne Rasband, National Institutes of Health, USA).

[3] = tested on: HCT116 cells; assay: AO/EB staining apoptosis assay; assay type: cell-based, human; details: HCT116 p53^+/+ and p53^−/−, IC50 concentration
Protocol: Three compounds with a distinct activity were selected for further tests. […] The apoptosis of the cells that were treated with the active compounds was confirmed using the Acridine Orange (AO)/Ethidium Bromide (EB) staining test[70] (Fig. 5).
The dual acridine orange/ethidium bromide (AO/EB) staining method was used for the morphological analysis of apoptosis. The cells were seeded on coverslips at a density of 8·10^5 cells/slide and incubated at 37 °C for 48 h. Then, the medium was removed and solutions of 5 s, 5 u, 7 f and DOX at the IC50 concentration were added. After 24 h, the cells were washed with PBS, and then the cells were incubated in a staining solution (100 μg/mL AO and 100 μg/mL EB in PBS) (Sigma-Aldrich, St. Louis, MO, USA) for 3–4 min. After staining, the coverslips were washed with PBS and fixed with 3.7% paraformaldehyde for 15 min. Observations and photography were performed with a Nikon Eclipse Ni-U fluorescent microscope equipped with the sets of filters for AO and EB (excitation filter 450–490, barrier filter BA520).

[4] = tested on: HCT116^−/−; assay: Antiproliferative assay (MTS, 72 h) on HCT116 with p53 deletion; assay type: cell-based, human; details: for IC50: Homo sapiens, HCT-116, MTS, 72 h incubation
[5] = tested on: HCT116^+/+; assay: Antiproliferative assay (MTS, 72 h) on HCT116 wild type; assay type: cell-based, human; details: for IC50: Homo sapiens, HCT-116
[6] = MTS, 72 h incubation, read-out: Activity IC50 HCT116^+/+
[7] = p53 null cells, after the first 12 hours

## O=C(Nc1cc(C(F)(F)F)cc(C(F)(F)F)c1)c1ccc2ccccc2c1O [7f]
[1]
  IC50: 3.55 ± 0.76 µM
[2]; either of the lines tested
  p21 protein amount: did not increase p21
[3]
  apoptosis (AO/EB staining): early and late apoptotic cells
[4]
  IC50: 0.35 ± 0.08 µM
[5]; [6]
  IC50: 0.46 ± 0.05 µM
[5]; submicromolar activity level, read-out: IC50 for the HCT116 wild type
  IC50: 0.464 µM

## O=C(Nc1cc(C(F)(F)F)cc(C(F)(F)F)c1Cl)c1ccc2ccccc2c1O [5u]
[1]
  IC50: 16.3 ± 1.28 µM
[2]; [7]
  p21 protein amount: small, insignificant increase
[3]
  apoptosis (AO/EB staining): early and late apoptotic cells
[4]
  IC50: 2.72 ± 0.63 µM
[5]
  selectivity for the wild type over p53 null cells: roughly four times more active against the wild type
[5]; [6]
  IC50: 0.72 ± 0.28 µM

## O=C(Nc1ccc(F)c(Cl)c1)c1ccc2ccccc2c1O [5s]
[1]
  IC50: > 25 µM
[1]; cytotoxicity against the normal cell line vs HCT116
  selectivity index: > 30
[2]; [7]
  p21 protein amount: small, insignificant increase
[3]
  apoptosis (AO/EB staining): early and late apoptotic cells
[4]
  selectivity towards the p53 null cells (HCT116 p53^−/− vs wild type): more than eight times more toxic
  IC50: 0.83 ± 0.31 µM
[5]; [6]
  IC50: 6.87 ± 2.48 µM
